Assay results as given in ChEMBL document CHEMBL5543096 (J Med Chem, 2024).
Calls of active or inactive are those of the source. The calls are words filed in the database; no cut-off is given here.

Assays:
[1] = AUC (0 to last) in Sprague-Dawley rat at 0.3 mg/kg,ip measured at 0.05 to 24 hrs of post administration by LC-MS/MS analysis; format: ADME, organism-based; conditions: in vivo, time 0.05-24 hrs
[2] = Toxicity in chronic restraint stress-induced depressive C57BL/6J mouse model assessed as memory impairment at 4 mg/kg,ip administration and measured after 4 hrs by novel object recognition test; format: organism-based; conditions: in vivo
[3] = biological target: T1, Muscarinic acetylcholine receptor M1 (Homo sapiens, UniProt P11229); experiment: Binding affinity to human N-terminal eGFP-tagged CHRM1 expressed in HEK293T cells assessed as dissociation constant incubated for 10 mins by microscale thermophoresis assay; format: cell-based
T1 sequence (P11229 whole entry): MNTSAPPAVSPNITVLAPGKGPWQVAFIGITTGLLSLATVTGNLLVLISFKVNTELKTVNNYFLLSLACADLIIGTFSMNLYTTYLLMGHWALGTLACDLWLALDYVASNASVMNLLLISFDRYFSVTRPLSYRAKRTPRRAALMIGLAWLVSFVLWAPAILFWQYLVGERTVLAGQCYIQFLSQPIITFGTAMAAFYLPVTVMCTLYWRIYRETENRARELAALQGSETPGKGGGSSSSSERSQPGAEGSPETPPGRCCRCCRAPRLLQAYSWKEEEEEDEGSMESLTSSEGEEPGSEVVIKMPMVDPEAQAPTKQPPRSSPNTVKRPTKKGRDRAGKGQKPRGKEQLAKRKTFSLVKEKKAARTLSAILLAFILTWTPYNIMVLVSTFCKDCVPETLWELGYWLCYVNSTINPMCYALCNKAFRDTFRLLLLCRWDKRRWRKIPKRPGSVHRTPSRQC

[4] = Half life in Sprague-Dawley rat at 0.3 mg/kg,ip measured at 0.05 to 24 hrs of post administration by LC-MS/MS analysis; format: ADME, organism-based; conditions: in vivo, time 0.05-24 hrs
Mus musculus [5] = experiment: Antidepressant activity in chronic restraint stress-induced depressive C57BL/6J mouse model assessed as increase in hippocampal BDNF protein expression at 0.3 mg/kg,ip administration measured after 24 hrs by Western blotting analysis; format: functional, organism-based
Mus musculus [6] = experiment: Antidepressant activity in Reserpine-induced depressive ICR mouse model assessed as decrease in immobility time at 300 microg/kg,ip administrated on day 4 to 8 measured on day 11 by tail suspension test; format: functional, organism-based; conditions: dose 300.0 µg/kg, time 8.0 day
Mus musculus [7] = experiment: Antidepressant activity in chronic restraint stress-induced depressive C57BL/6J mouse model assessed as change in total distance traveled at 25 to 300 microg/kg,ip administrated on day 29 to 33 measured on day 34 by open field test; format: functional, organism-based; conditions: dose 25-300 µg/kg, time 6.0 day
Mus musculus [8] = experiment: Antidepressant activity in chronic restraint stress-induced depressive C57BL/6J mouse model assessed as reduction in immobility time at 100 to 300 microg/kg,ip administrated on day 29 to 33 measured on day 35 by forced swimming test; format: functional, organism-based; conditions: dose 100-300 µg/kg, time 7.0 day
[9] = Tmax in Sprague-Dawley rat at 0.3 mg/kg,iv measured at 0.05 to 24 hrs of post administration by LC-MS/MS analysis; format: ADME, organism-based; conditions: in vivo, time 0.05-24 hrs
[10] = Toxicity in chronic restraint stress-induced depressive C57BL/6J mouse model assessed as lung pathological change at 25 to 300 microg/kg,ip administrated on day 29 to 33 measured on day 36 by hematoxylin and eosin staining based microscopic analysis; format: tissue-based; conditions: in vivo, 192 h, dose 25-300 µg/kg, time 8 day
[11] = Toxicity in chronic restraint stress-induced depressive C57BL/6J mouse model assessed as heart pathological change at 25 to 300 microg/kg,ip administrated on day 29 to 33 measured on day 36 by hematoxylin and eosin staining based microscopic analysis; format: tissue-based; conditions: in vivo, 192 h, dose 25-300 µg/kg, time 8 day
[12] = Half life in Sprague-Dawley rat at 0.3 mg/kg,iv measured at 0.05 to 24 hrs of post administration by LC-MS/MS analysis; format: ADME, organism-based; conditions: in vivo, time 0.05-24 hrs
[13] = Toxicity in chronic restraint stress-induced depressive C57BL/6J mouse model assessed as spleen pathological change at 25 to 300 microg/kg,ip administrated on day 29 to 33 measured on day 36 by hematoxylin and eosin staining based microscopic analysis; format: tissue-based; conditions: in vivo, 192 h, dose 25-300 µg/kg, time 8 day
[14] = Toxicity in chronic restraint stress-induced depressive C57BL/6J mouse model assessed as decrease in percentage of spontaneous alternation at 1 mg/kg,ip administration by Y-maze test; format: organism-based; conditions: in vivo
Mus musculus [15] = experiment: Antidepressant activity in Reserpine-induced depressive ICR mouse model assessed as decrease in immobility time at ip administrated on day 4 to 8 measured on day 10 by forced swimming test; format: functional, organism-based; conditions: time 7.0 day
Mus musculus [16] = experiment: Antidepressant activity in Reserpine-induced depressive C57BL/6J mouse model assessed as decrease in immobility time at 0.1 to 1 mg/kg,ip administration measured after 30 mins by tail suspension test; format: functional, organism-based; conditions: dose 0.1-1 mg/kg
[17] = Toxicity in chronic restraint stress-induced depressive C57BL/6J mouse model assessed as liver pathological change at 25 to 300 microg/kg,ip administrated on day 29 to 33 measured on day 36 by hematoxylin and eosin staining based microscopic analysis; format: tissue-based; conditions: in vivo, 192 h, dose 25-300 µg/kg, time 8 day
Mus musculus [18] = experiment: Antidepressant activity in chronic restraint stress-induced depressive C57BL/6J mouse model assessed as increase in hippocampal BDNF mRNA expression at 0.3 mg/kg,ip administration measured after 8 hrs by qRT-PCR analysis; format: functional, organism-based
[19] = Toxicity in chronic restraint stress-induced depressive C57BL/6J mouse model assessed as kidney pathological change at 25 to 300 microg/kg,ip administrated on day 29 to 33 measured on day 36 by hematoxylin and eosin staining based microscopic analysis; format: tissue-based; conditions: in vivo, 192 h, dose 25-300 µg/kg, time 8 day
Mus musculus [20] = experiment: Antidepressant activity in chronic restraint stress-induced depressive C57BL/6J mouse model assessed as increase in hippocampal BDNF protein expression at 0.3 mg/kg,ip administration measured after 8 hrs by Western blotting analysis; format: functional, organism-based
HT-22 = experiment: Neuroprotective activity against CORT-induced cytotoxicity in mouse HT-22 cells assessed as increase in cell viability at 12.5 to 100 uM incubated for 24 hrs by CCK-8 assay; format: functional, cell-based; conditions: dose 12.5-100 µM
[21] = MRT (0 to infinity) in Sprague-Dawley rat at 0.3 mg/kg,ip measured at 0.05 to 24 hrs of post administration by LC-MS/MS analysis; format: ADME, organism-based; conditions: in vivo, time 0.05-24 hrs
[22] = MRT (0 to infinity) in Sprague-Dawley rat at 0.3 mg/kg,iv measured at 0.05 to 24 hrs of post administration by LC-MS/MS analysis; format: ADME, organism-based; conditions: in vivo, time 0.05-24 hrs
[23] = Toxicity in chronic restraint stress-induced depressive C57BL/6J mouse model assessed as decrease in percentage of spontaneous alternation at 2 mg/kg,ip administration by Y-maze test; format: organism-based; conditions: in vivo
[24] = Cmax in Sprague-Dawley rat at 0.3 mg/kg,ip measured at 0.05 to 24 hrs of post administration by LC-MS/MS analysis; format: ADME, organism-based; conditions: in vivo, time 0.05-24 hrs
[25] = MRT (0 to last) in Sprague-Dawley rat at 0.3 mg/kg,ip measured at 0.05 to 24 hrs of post administration by LC-MS/MS analysis; format: ADME, organism-based; conditions: in vivo, time 0.05-24 hrs

CN1[C@@H]2C[C@@H](OC(=O)[C@@](F)(CO)c3ccccc3)C[C@H]1[C@@H]1O[C@@H]12
AUC(0-t) [1]: 24.2 ng·h/mL | Activity [2]: Toxic | Kd [3]: 336 µM | half-life [4]: 16.6 min | Activity (Mus musculus [5]): inactive | Activity (Mus musculus [6]): Active | Activity (Mus musculus [7]): inactive | Activity (Mus musculus [8]): Active | Tmax [9]: 3 min | Activity [10]: Non-Toxic | Activity [11]: Non-Toxic | half-life [12]: 13.9 min | Activity [13]: Non-Toxic | Activity [14]: Non-Toxic | Activity (Mus musculus [15]): Dose-Dependent Effect | Activity (Mus musculus [16]): Active | Activity [17]: Non-Toxic | Activity (Mus musculus [18]): Active | Activity [19]: Non-Toxic | Activity (Mus musculus [20]): Active | Activity (HT-22): Active | MRT inf [21]: 27.3 min | MRT inf [22]: 16.6 min | Activity [23]: Non-Toxic | Cmax [24]: 41.9 ng/mL | MRT last [25]: 23 min
